From patent US9895390B2, “Methods and assays for combination treatment of cancer” (CHILDREN'S MEDICAL CENTER CORPORATION, priority 2012, dated 2018)

Columns and labels:
[1] = tested on: HCC15; assay: Growth rate over 10 day time-course (Cell Titer Glo); type: cell-based, human; details: HCC15, 1 μM DZNep, 10 day time-course
Method: (§1) FIG. 2A depicts a Western Blot for EZH2 and H3K27me3 performed on whole cell extracts 4 days after indicated treatments, β-actin shown as a loading control. FIG. 2B depicts a graph of the growth rates of matched shGFP and shGFP cells treated with 1 μM DZNep and assayed by Cell Titer Glo at days 3, 5, 7, and 10 post plating at equal densities. Average luminescence ±s.e.m. for 3 replicate wells is shown based on when each shGFP cell line reached logarithmic growth, * indicates p<0.03. FIG. 2C depicts a graph of the response to Etoposide. Cell lines were plated at equal densities and treated a range of etoposide doses with or without 1 μM DZNep. On the 4th day, cell viability was measured using Cell Titer Glo and the percent survival at each dose of etoposide was calculated. Dose response curves were generated for the no DZNep and DZNep treated cells using the GraphPad prism software and IC50s were extrapolated. The fold change±s.e.m. of etoposide IC50 in response to DZNep is plotted, n=4 biological replicates, * indicates p<0.05. Cell lines with mutations in Brg1, EGFR and B-Raf are indicated.

[2] = tested on: H157; assay: as above; type: cell-based, human; details: H157, 1 μM DZNep, 10 day time-course
Method: as §1

[3] = tested on: H441; assay: as above; type: cell-based, human; details: H441, 1 μM DZNep, 10 day time-course
Method: as §1

[4] = tested on: Calu6; assay: as above; type: cell-based, human; details: Calu6, 1 μM DZNep, 10 day time-course
Method: as §1

[5] = tested on: HCC95; assay: as above; type: cell-based, human; details: HCC95, 1 μM DZNep, 10 day time-course
Method: as §1

[6] = tested on: human NSCLC lines; assay: Growth rates over 10 day time-course (Cell Titer Glo), 12 cell lines; type: cell-based; details: 1 μM DZNep, 10 day time-course
Method: as §1

Nc1nccc2c1ncn2[C@@H]1C=C(CO)[C@@H](O)[C@H]1O [DZNep, 3-Deazaneplanocin A]
decrease in proliferation [1]: 3.2 fold | decrease in proliferation [2]: 2.1 fold | decrease in proliferation [3]: 2.1 fold | decrease in proliferation [4]: 2.1 fold | change in proliferation [5]: increased proliferation | cell lines with reduced growth rates [6]: 11 out of 12
